Reference: PubChem BioAssay AID256 (DTP/NCI, 2004)
“And” between values parts separate entries of the source, which are not always exact repeats. Equal entries are not always repeated. Inconclusive results and toxic doses are left out. How the source made its calls: active means survival T/C of 150% or more; inactive means T/C below 125% in these data.

Test system: CD2F1 mice, L1210 leukemia ip, survival T/C
Assay: NCI In Vivo Anticancer Drug Screen. Data for tumor model L1210 Leukemia (intraperitoneal) in CD2F1 (CDF1) mice
Details: higher = longer survival
Summary of the method: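 Activity against a transplanted murine tumor was judged by comparing the compound group with a vehicle group. The outcome in the treated animals was divided by that in the controls.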

[1] = endpoint: mean survival time, dose: 100.0 mg/kg/injection, schedule: Q01DX009 (ip), vehicle: saline with Tween-80
[2] = endpoint: mean survival time, dose: 100.0 mg/kg/injection, schedule: Q04DX002 (ip), vehicle: saline with Tween-80
[3] = endpoint: mean survival time, dose: 200.0 mg/kg/injection, schedule: Q01DX009 (ip), vehicle: saline with Tween-80
[4] = endpoint: mean survival time, dose: 200.0 mg/kg/injection, schedule: Q04DX002 (ip), vehicle: saline with Tween-80
[5] = endpoint: mean survival time, dose: 400.0 mg/kg/injection, schedule: Q04DX002 (ip), vehicle: saline with Tween-80
[6] = endpoint: mean survival time, dose: 100.0 mg/kg/injection, schedule: Q01DX001 (ip), vehicle: saline with Tween-80
[7] = endpoint: mean survival time, dose: 200.0 mg/kg/injection, schedule: Q01DX001 (ip), vehicle: saline with Tween-80
[8] = endpoint: mean survival time, dose: 400.0 mg/kg/injection, schedule: Q01DX001 (ip), vehicle: saline with Tween-80
[9] = endpoint: mean survival time, dose: 100.0 mg/kg/injection, schedule: Q04DX003 (ip), vehicle: saline with Tween-80
[10] = endpoint: mean survival time, dose: 200.0 mg/kg/injection, schedule: Q04DX003 (ip), vehicle: saline with Tween-80
[11] = endpoint: mean survival time, dose: 400.0 mg/kg/injection, schedule: Q04DX003 (ip), vehicle: saline with Tween-80
[12] = endpoint: median survival time, dose: 12.5 mg/kg/injection, schedule: Q01DX005 (ip), vehicle: water
[13] = endpoint: median survival time, dose: 25.0 mg/kg/injection, schedule: Q01DX005 (ip), vehicle: water
[14] = endpoint: median survival time, dose: 50.0 mg/kg/injection, schedule: Q01DX005 (ip), vehicle: water
[15] = endpoint: median survival time, dose: 100.0 mg/kg/injection, schedule: Q01DX005 (ip), vehicle: water
[16] = endpoint: median survival time, dose: 200.0 mg/kg/injection, schedule: Q01DX005 (ip), vehicle: water

Measured: T/C

CCNC(=O)OCC1C2=C(C(=O)C(C)=C(N)C2=O)N2CC3C(N3C)C12OC (stereo not given)
inactive: endpoint: mean survival time, dose: 133.0 mg/kg/injection, schedule: Q01DX001 (ip), vehicle: carboxymethylcellulose (CMC) 118 % of control | endpoint: mean survival time, dose: 300.0 mg/kg/injection, schedule: Q01DX001 (ip), vehicle: carboxymethylcellulose (CMC) 111 % of control

O=C(COc1ccccc1)NC(=S)Nc1ccc([N+](=O)[O-])cc1Cl
inactive: [1] 88 % of control and 89 % of control | [2] 95 % of control | [3] 93 % of control and 94 % of control | [4] 87 % of control | endpoint: mean survival time, dose: 400.0 mg/kg/injection, schedule: Q01DX009 (ip), vehicle: saline with Tween-80 92 % of control and 93 % of control | [5] 91 % of control

COc1cc2c(cc1OC)-c1cc(C)c3cc(OC)c(OC)cc3[n+]1CC2
inactive: endpoint: mean survival time, dose: 25.0 mg/kg/injection, schedule: Q01DX009 (ip), vehicle: other 109 % of control | endpoint: mean survival time, dose: 50.0 mg/kg/injection, schedule: Q01DX009 (ip), vehicle: other 115 % of control | endpoint: mean survival time, dose: 100.0 mg/kg/injection, schedule: Q01DX009 (ip), vehicle: other 109 % of control

CC(=O)OCCN1CCN(CC/C=C2\c3ccccc3Sc3ccc(Cl)cc32)CC1
inactive: endpoint: mean survival time, dose: 3.13 mg/kg/injection, schedule: Q01DX009 (ip), vehicle: saline 100 % of control | endpoint: mean survival time, dose: 6.25 mg/kg/injection, schedule: Q01DX009 (ip), vehicle: saline 116 % of control and 105 % of control | endpoint: mean survival time, dose: 6.25 mg/kg/injection, schedule: Q04DX003 (ip), vehicle: saline 98 % of control | endpoint: mean survival time, dose: 12.5 mg/kg/injection, schedule: Q01DX009 (ip), vehicle: saline 117 % of control and 123 % of control | endpoint: mean survival time, dose: 12.5 mg/kg/injection, schedule: Q04DX003 (ip), vehicle: saline 89 % of control | endpoint: mean survival time, dose: 25.0 mg/kg/injection, schedule: Q01DX009 (ip), vehicle: saline 117 % of control | endpoint: mean survival time, dose: 25.0 mg/kg/injection, schedule: Q04DX003 (ip), vehicle: saline 98 % of control and 111 % of control | endpoint: mean survival time, dose: 50.0 mg/kg/injection, schedule: Q04DX003 (ip), vehicle: saline 101 % of control

c1ccc(CN2CCc3cc4c(cc3C2)OCO4)cc1
inactive: endpoint: mean survival time, dose: 37.5 mg/kg/injection, schedule: Q01DX001 (ip), vehicle: saline 102 % of control | endpoint: mean survival time, dose: 75.0 mg/kg/injection, schedule: Q01DX001 (ip), vehicle: saline 102 % of control | endpoint: mean survival time, dose: 150.0 mg/kg/injection, schedule: Q01DX001 (ip), vehicle: saline 90 % of control

CNC(=O)O/N=C1\CCCc2sccc21
inactive: [6] 110 % of control | [7] 110 % of control | [8] 101 % of control

NP(=O)(OCCCCOCc1ccccc1)N(CCCl)CCCl (stereo not given)
inactive: endpoint: mean survival time, dose: 25.0 mg/kg/injection, schedule: Q01DX001 (ip), vehicle: other 98 % of control | endpoint: mean survival time, dose: 50.0 mg/kg/injection, schedule: Q01DX001 (ip), vehicle: other 101 % of control | endpoint: mean survival time, dose: 100.0 mg/kg/injection, schedule: Q01DX001 (ip), vehicle: other 101 % of control | endpoint: mean survival time, dose: 200.0 mg/kg/injection, schedule: Q01DX001 (ip), vehicle: other 90 % of control | endpoint: mean survival time, dose: 400.0 mg/kg/injection, schedule: Q01DX001 (ip), vehicle: other 95 % of control

Nc1ccc(Cl)c([N+](=O)[O-])c1
inactive: endpoint: mean survival time, dose: 100.0 mg/kg/injection, schedule: Q04DX003 (ip), vehicle: Klucel (hydroxypropylcellulose) (HPC) 94 % of control | endpoint: mean survival time, dose: 200.0 mg/kg/injection, schedule: Q04DX003 (ip), vehicle: Klucel (hydroxypropylcellulose) (HPC) 91 % of control | endpoint: mean survival time, dose: 400.0 mg/kg/injection, schedule: Q04DX003 (ip), vehicle: Klucel (hydroxypropylcellulose) (HPC) 89 % of control

Cc1cccc(CC(C)O)n1 (stereo not given)
inactive: endpoint: mean survival time, dose: 100.0 mg/kg/injection, schedule: Q01DX001 (ip), vehicle: saline 96 % of control | [2] 97 % of control | endpoint: mean survival time, dose: 100.0 mg/kg/injection, schedule: Q04DX002 (ip), vehicle: saline 93 % of control | [9] 96 % of control and 97 % of control | endpoint: mean survival time, dose: 200.0 mg/kg/injection, schedule: Q01DX001 (ip), vehicle: saline 94 % of control | [4] 106 % of control | endpoint: mean survival time, dose: 200.0 mg/kg/injection, schedule: Q04DX002 (ip), vehicle: saline 96 % of control | [10] 86 % of control and 112 % of control | endpoint: mean survival time, dose: 400.0 mg/kg/injection, schedule: Q01DX001 (ip), vehicle: saline 98 % of control | [5] 93 % of control | endpoint: mean survival time, dose: 400.0 mg/kg/injection, schedule: Q04DX002 (ip), vehicle: saline 93 % of control | [11] 97 % of control and 106 % of control

CCC1NC(=O)C(NC(=O)c2ncccc2O)C(C)OC(=O)C(c2ccccc2)NC(=O)C2CC(=O)CCN2C(=O)C(Cc2ccccc2)N(C)C(=O)C2CCCN2C1=O (stereo not given)
inactive: [2] 108 % of control | [4] 108 % of control

O=c1[nH]cc(CCCc2ccccc2)c(=O)[nH]1
inactive: [9] 97 % of control | [10] 99 % of control | [11] 90 % of control

CC1=[S+]c2ccccc2C2Nc3ccccc3C12 (stereo not given)
inactive: endpoint: mean survival time, dose: 100.0 mg/kg/injection, schedule: Q04DX003 (ip), vehicle: acetone 103 % of control | endpoint: mean survival time, dose: 200.0 mg/kg/injection, schedule: Q04DX003 (ip), vehicle: acetone 105 % of control

Nc1nc(=O)n(CCCOc2cccc(NC(=O)c3ccccc3)c2)cc1-c1ccc(Cl)c(Cl)c1
inactive: [6] 91 % of control | [7] 94 % of control | [8] 97 % of control

CCOC(=O)C(=C=C(C(=O)OCC)C(=O)OCC)C(=O)OCC
inactive: endpoint: mean survival time, dose: 25.0 mg/kg/injection, schedule: Q01DX005 (ip), vehicle: saline with Tween-80 97 % of control | endpoint: mean survival time, dose: 25.0 mg/kg/injection, schedule: Q01DX009 (ip), vehicle: saline with Tween-80 95 % of control | endpoint: mean survival time, dose: 25.0 mg/kg/injection, schedule: Q04DX002 (ip), vehicle: saline with Tween-80 103 % of control | endpoint: mean survival time, dose: 50.0 mg/kg/injection, schedule: Q01DX005 (ip), vehicle: saline with Tween-80 92 % of control and 97 % of control | endpoint: mean survival time, dose: 50.0 mg/kg/injection, schedule: Q01DX009 (ip), vehicle: saline with Tween-80 98 % of control | endpoint: mean survival time, dose: 50.0 mg/kg/injection, schedule: Q04DX002 (ip), vehicle: saline with Tween-80 88 % of control and 106 % of control | endpoint: mean survival time, dose: 100.0 mg/kg/injection, schedule: Q01DX005 (ip), vehicle: saline with Tween-80 94 % of control | [1] 95 % of control | [2] 103 % of control and 106 % of control | endpoint: mean survival time, dose: 200.0 mg/kg/injection, schedule: Q01DX005 (ip), vehicle: saline with Tween-80 86 % of control and 94 % of control | [3] 91 % of control | [4] 95 % of control and 98 % of control | [5] 98 % of control

CN(C)c1ccc(N=Nc2cccnc2)cc1
inactive: [6] 97 % of control | [7] 97 % of control

Cc1cn(C2CC(O)C(CO)O2)c(=O)nc1NCc1ccco1 (stereo not given)
inactive: [12] 103 % of control | [13] 103 % of control | [14] 104 % of control | [15] 105 % of control | [16] 102 % of control

N#CCc1c(C(N)=O)ncn1C1OC(COP(=O)(O)O)C(O)C1O (stereo not given)
inactive: [12] 109 % of control | [13] 104 % of control | [14] 103 % of control | [15] 97 % of control | [16] 97 % of control
